From patent US8163509B2, “Biological markers predictive of anti-cancer response to insulin-like growth factor-1 receptor kinase inhibitors” (The Regents of the University of Colorado, A Body Corporate, priority 2008, dated 2012)
pIC50: −log10 of the molar value.

Legend:
[1] = system: Colo320 CRC cell line; assay: SRB proliferation assay, 72 h; format: cell-based; settings: Homo sapiens, COLO 320, 0.05-5 μM, read-out: IC50, growth inhibition by PQIP (SRB)
Procedure: Cell Lines and Culture. […] human colon cancer cell lines, were obtained from American Type Culture Collection (Manassas, Va.). Cells were grown in RPMI medium supplemented with 10% fetal bovine serum, 1% non-essential amino acids, 1% penicillin/streptomycin and were maintained at 37° C. in an incubator under an atmosphere containing 5% CO2. The cells were routinely screened for the presence of mycoplasma (MycoAlert, Cambrex Bio Science, Baltimore, Md.) and were exposed to PQIP when they reached approximately 70% confluence.
The CRC cell lines were treated with a range of concentrations of PQIP (from 0.05-5 μM) for 72 hours.

[2] = system: HCT116 CRC cell line; assay: Gene expression analysis post PQIP exposure (gene array); format: cell-based, human; settings: 400 nM PQIP, 72 hours
Procedure: (§1) Microarray Analysis: Cells were plated at 2×106 in 6-well plates 24 h prior to harvest. After 24 hours cells were rinsed twice with PBS, and RNA was prepared using a RNeasy Plus mini kit (Qiagen, Valencia, Calif.). RNA stabilization, isolation, and microarray sample labeling were carried out using standard methods for reverse transcription and one round of in vitro transcription. HG-U133 set microarrays were hybridized with 10 μg of cRNA and processed according to the protocols of the manufacturer (Affymetrix). Hybridization signals and detection calls were generated in BioConductor, using the germa and affy software packages. Microarray data was analyzed using BRB ArrayTools v3.2 developed by Dr. Richard Simon and Amy Peng Lam.
(§2) Gene Expression Analysis Post PQIP Exposure: In order to identify genes that are modulated following exposure to PQIP, 5 sensitive and 5 resistant CRC cell lines were treated with 400 nM PQIP for 72 hours, total RNA was purified, and gene array analysis was performed as described previously. The gene expression profiles following PQIP exposure were compared to the respective untreated profiles. To characterize changes in gene expression profile, one PQIP resistant (HCT116) and one PQIP sensitive (HT29) tumor cell type was examined, and caldesmon, metallothioneins, ALDH1A1, and MAP2K6 expression levels were analyzed.

[3] = system: HT29 CRC cell line; assay: as above; format: cell-based, human; settings: 400 nM PQIP, 72 hours
Procedure: as §1, §2

[4] = target: T1, IGF1R (Homo sapiens, UniProt P08069); assay: Meso Scale Discovery (MSD) assay of phosphorylated IGF1R; format: cell-based; settings: HT29 and HCT116, 72 h
T1 construct: endogenous in cells; host or cells: HT29 and HCT116 CRC cell lines
Procedure: Detection of IGF1R using Meso Scale Discovery assays (MSD): HT29 and HCT116 CRC cell lines were seeded into 6-well plates, allowed to attach for 24 hours and exposed to PQIP and chemotherapy (SN38, or Oxaliplatin) alone or in combination for 72 h. Following exposure, cells were rinsed with PBS and scraped into RIPA lysis buffer containing protease inhibitors, EDTA, NaF, and sodium orthovanadate. Total protein was quantified using the BioRad Dc Protein Assay (BioRad, Hercules, Calif.). Fifty micrograms of protein in 25 μL was added per well for MSD detection of phosphorylated IGF-1R according to manufacturer's instructions (Meso Scale Discovery, Gaithersburg, Md.).
Cells were exposed to PQIP (0.4 μmol/L) and chemotherapy (SN38 0.004 μmol/L, or Oxaliplatin 1.0 μmol/L) alone or in combination for 72 h. Protein was extracted and analyzed for phospho/total IGF1R levels using a Meso Scale Discovery (MSD; Gaithersburg, Md. 20877) assay.

[5] = system: human tumor explants; assay: In vivo growth study, primary CRC xenografts (human tumor explants); design: species or system athymic nude mice; settings: OSI-906 40 mg/kg, 28 days
Procedure: In vivo Growth Studies: Five to six-week-old female athymic nude mice (Harlan Sprague Dawley) were used. The research protocol was approved by the University of Colorado Denver, Animal Care and Use Committee. Mice were caged in groups of five and kept on 12-h light/dark cycle and provided with sterilized food and water ad libitum. All of the studies were conducted in accordance with the NIH guidelines for the care and use of laboratory animals, and animals were housed in a facility accredited by the American Association for Accreditation of Laboratory Animal Care. Animals were allowed to acclimate for at least 7 days before any handling.
The primary CRC xenografts were generated according to published methodology (Rubio-Viqueira B, et al. Clin Cancer Res 2006; 12(15):4652-61.). Briefly, surgical specimens of patients operated at the University of Colorado Hospital were reimplanted s.c. to 5 mice for each patient. […] Mice were monitored daily for signs of toxicity and were weighed twice weekly. Tumor size was evaluated two times per week by caliper measurements using the following formula: tumor volume=[length×width^2][…]. Relative tumor growth index was calculated by relative tumor growth of treated mice divided by relative tumor growth of control mice since the initiation of therapy (T/C). […]

T1 sequence (P08069 31-1367): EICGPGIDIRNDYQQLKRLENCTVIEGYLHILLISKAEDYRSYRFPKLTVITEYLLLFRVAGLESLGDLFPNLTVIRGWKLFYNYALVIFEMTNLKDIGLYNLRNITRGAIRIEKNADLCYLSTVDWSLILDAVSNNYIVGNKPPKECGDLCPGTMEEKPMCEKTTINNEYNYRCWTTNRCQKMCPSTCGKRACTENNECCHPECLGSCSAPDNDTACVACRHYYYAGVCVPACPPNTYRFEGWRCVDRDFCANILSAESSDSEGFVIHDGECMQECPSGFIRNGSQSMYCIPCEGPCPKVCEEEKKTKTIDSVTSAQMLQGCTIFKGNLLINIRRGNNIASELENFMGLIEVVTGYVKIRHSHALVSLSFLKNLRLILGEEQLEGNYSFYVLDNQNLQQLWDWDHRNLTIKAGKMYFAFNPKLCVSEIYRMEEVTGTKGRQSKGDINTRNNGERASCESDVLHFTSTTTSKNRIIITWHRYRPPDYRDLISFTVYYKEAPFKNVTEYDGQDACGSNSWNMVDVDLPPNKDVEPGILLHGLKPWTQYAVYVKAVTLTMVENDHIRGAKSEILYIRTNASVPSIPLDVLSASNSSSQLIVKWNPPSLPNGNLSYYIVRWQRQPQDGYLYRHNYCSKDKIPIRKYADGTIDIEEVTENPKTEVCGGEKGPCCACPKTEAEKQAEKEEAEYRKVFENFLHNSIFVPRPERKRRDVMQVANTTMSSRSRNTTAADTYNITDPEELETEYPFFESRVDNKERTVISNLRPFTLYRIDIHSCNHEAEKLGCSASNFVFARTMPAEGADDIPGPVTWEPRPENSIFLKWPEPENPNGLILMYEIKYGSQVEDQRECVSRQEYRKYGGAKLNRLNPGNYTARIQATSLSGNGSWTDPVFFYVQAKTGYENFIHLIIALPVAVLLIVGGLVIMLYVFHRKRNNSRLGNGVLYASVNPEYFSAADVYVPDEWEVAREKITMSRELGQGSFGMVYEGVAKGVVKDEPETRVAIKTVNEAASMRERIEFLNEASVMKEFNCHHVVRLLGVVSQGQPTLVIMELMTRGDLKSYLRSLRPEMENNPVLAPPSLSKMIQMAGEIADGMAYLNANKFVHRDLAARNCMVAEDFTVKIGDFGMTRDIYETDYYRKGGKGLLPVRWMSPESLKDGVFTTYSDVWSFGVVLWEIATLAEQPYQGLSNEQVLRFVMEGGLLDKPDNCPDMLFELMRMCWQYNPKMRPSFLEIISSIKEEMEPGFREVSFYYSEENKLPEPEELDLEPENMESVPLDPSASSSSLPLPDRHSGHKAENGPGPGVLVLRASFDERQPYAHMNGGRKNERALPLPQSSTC

## CN1CCN([C@H]2C[C@@H](c3nc(-c4ccc5ccc(-c6ccccc6)nc5c4)c4c(N)nccn43)C2)CC1 [PQIP, cis-3-[3-(4-Methyl-piperazin-1-yl)-cyclobutyl]1-(2-phenyl-quinolin-7-yl)-imidazo[1,5-a]pyrazin-8-ylamine]
[1]
  pIC50: > 6.30
[2]
  Fold change of post exposure PQIP to untreated, ALDH1A1 expression: 2.3 fold
  Fold change of post exposure PQIP to untreated, CALD1 expression: 1.9 fold
  Fold change of post exposure PQIP to untreated, MAP2K6 expression: 0.7 fold
  Fold change of post exposure PQIP to untreated, MT1E expression: 1.2 fold
  Fold change of post exposure PQIP to untreated, MT1F expression: 1.6 fold
  Fold change of post exposure PQIP to untreated, MT1G expression: 1.1 fold
  Fold change of post exposure PQIP to untreated, MT1H expression: 1.8 fold
  Fold change of post exposure PQIP to untreated, MT1M expression: 1.5 fold
  Fold change of post exposure PQIP to untreated, MT1X expression: 2.0 fold
  Fold change of post exposure PQIP to untreated, MT2A expression: 1.0 fold
[3]
  Fold change of post exposure PQIP to untreated, ALDH1A1 expression: 0.56 fold
  Fold change of post exposure PQIP to untreated, CALD1 expression: 1.5 fold
  Fold change of post exposure PQIP to untreated, MAP2K6 expression: 0.87 fold
  Fold change of post exposure PQIP to untreated, MT1E expression: 12.5 fold
  Fold change of post exposure PQIP to untreated, MT1F expression: 10.8 fold
  Fold change of post exposure PQIP to untreated, MT1G expression: 4.5 fold
  Fold change of post exposure PQIP to untreated, MT1H expression: 11.0 fold
  Fold change of post exposure PQIP to untreated, MT1M expression: 15.2 fold
  Fold change of post exposure PQIP to untreated, MT1X expression: 16.0 fold
  Fold change of post exposure PQIP to untreated, MT2A expression: 8.1 fold
[4]; PQIP 0.4 μmol/L plus SN38 0.004 μmol/L or Oxaliplatin 1.0 μmol/L
  effect on phosphorylated IGF1R, PQIP in combination with SN38 or Oxaliplatin: inhibited
[4]; PQIP 0.4 μmol/L, SN38 0.004 μmol/L, Oxaliplatin 1.0 μmol/L
  effect on phosphorylated IGF1R, agent alone: inhibited

## C[C@]1(O)C[C@@H](c2nc(-c3ccc4ccc(-c5ccccc5)nc4c3)c3c(N)nccn32)C1 [OSI-906, cis-3-[8-amino-1-(2-phenyl-quinolin-7-yl)-imidazo[1,5-a]pyrazin-3-yl]-1-methyl-cyclobutanol]
[5]; three explants predicted as resistant
  TGI (relative tumor growth index, T/C): 130-200%
[5]; two explants predicted as sensitive
  TGI (relative tumor growth index, T/C): 21-28%
